Measured values: ChEMBL document CHEMBL3351545, “Development of photo-controllable hydrogen sulfide donor applicable in live cells” (Bioorg Med Chem Lett, 2015)
The source made the active and inactive calls. The rule behind the calls is not given here.

What was measured:
[1] = Induction of H2S release in phosphate buffer at 100 uM at pH 7.4 UV-irrdiated for 400 secs by methylene-blue assay; assay type: physicochemical; details: pH 7.4, 0.111111 h
HEK293 [2] = assay: Induction of H2S release in HEK293 cells at 100 uM incubated for 30 mins followed by UV photo-irradiation for 5 mins by fluorescence microscopic analysis; assay type: functional, cell-based; details: Homo sapiens
[3] = Induction of H2S release in phosphate buffer at 100 uM at pH 7.4 followed by UV-irrdiation by methylene-blue assay; assay type: physicochemical; details: pH 7.4, 100 µM, TDE = time-dependent effect
[4] = Induction of H2S release in phosphate buffer at 100 uM at pH 7.4 UV-irrdiated for 300 secs by fluorescence assay relative to control; assay type: physicochemical; details: pH 7.4, 5 min
[5] = Stability of the compound in phosphate buffer at 100 uM at pH 7.4 under dark condition after 1 month by HPLC analysis; assay type: physicochemical; details: pH 7.4, 730.5 h
HEK293 [6] = assay: Induction of H2S release in HEK293 cells at 100 uM using acetoxymethylated compound incubated for 30 mins followed by UV photoirradiation for 5 mins by fluorescence microscopic analysis; assay type: functional, cell-based; details: Homo sapiens
HEK293 [7] = assay: Cytotoxicity against HEK293 cells at 1 to 30 uM using acetoxymethylated compound after 2 days by MTT assay; assay type: cell-based; details: human, hek293, 48 h

Row | SMILES | Activity [1] [µM] | Activity (HEK293 [2]) | Activity [3] | Activity [4] | Stability [5] | Activity (HEK293 [6]) | Activity (HEK293 [7])
1 | CC(CSCC(C)(C(=O)O)c1cccc(C(=O)c2ccccc2)c1)(C(=O)O)c1cccc(C(=O)c2ccccc2)c1 (configuration not stated) | 15 | inactive |  |  |  |  | 
2 | CC(CSCC(C)(C(=O)O)c1ccc2oc3ccccc3c(=O)c2c1)(C(=O)O)c1ccc2oc3ccccc3c(=O)c2c1 (configuration not stated) |  |  | tde | Active | Stable | Active | Non-toxic
